Laboratory results reported in patent US9006487B2, “Amine-containing lipids and uses thereof” (Massachusetts Institute of Technology, priority 2005, dated 2015).
Values joined by “and” are separate entries in the source; they are usually repeats but may differ in a detail not shown here. Equal values may be shown once.

Assays:
Format in all cases: cell-based
cos-7 cells = assay: DNA transfection: luciferase expression relative to Lipofectamine 2000; settings: for luciferase expression (second part of table, values relative to LIPO2000): 300 ng of DNA per well
In short: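 cos-7 cells were transfected with 300 ng/well luciferase DNA complexed with lipid at ratios from 2.5 to 25 w/w. Bright-Glo luminescence was read after 48 hours and converted to ng luciferase by standard curve. Data are percent of the Lipofectamine 2000 control (2.5 w/w).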

[1] = test system: renilla and firefly luciferases; assay: siRNA delivery: reporter-protein (renilla luciferase) knockdown relative to Lipofectamine 2000, firefly luciferase as viability control; settings: 50 ng of siRNA per well
Method: Reporter-protein knockdown achieved by the top transfecting lipids relative to Lipofectamine™ 2000 (where negative values indicate improved knockdown). The assay accounts for toxicity, monitoring expression of both renilla and firefly luciferases, where the latter serves as viability control. For each lipid, 50 ng of siRNA was added per well at specific lipid/RNA w/w ratios (from top to bottom: 2.5, 5, 10, 15).

[2] = DNA delivery: raw luciferase expression (relative light units) of best-transfecting lipids; settings: 300 ng of DNA per well
Method: Raw values for luciferase expression (relative lights units) of best-transfecting lipids at lipid/DNA (w/w) ratios listed. 300 ng of DNA was added per well.

[3] = 1st column, no head printed (2.5 w/w by the raw values)
[4] = 2nd column, no head printed (5 w/w by the raw values)
[5] = 3rd column, no head printed (10 w/w by the raw values)
[6] = 4th column, no head printed (15 w/w by the raw values)

Structure (SMILES)	luciferase expression (second part of table, values relative to LIPO2000) (cos-7 cells; lipid/DNA 2.5 w/w)	luciferase expression (second part of table, values relative to LIPO2000) (cos-7 cells; lipid/DNA 5 w/w)	luciferase expression (second part of table, values relative to LIPO2000) (cos-7 cells; lipid/DNA 10 w/w)	luciferase expression (second part of table, values relative to LIPO2000) (cos-7 cells; lipid/DNA 15 w/w)	luciferase expression (second part of table, values relative to LIPO2000) (cos-7 cells; lipid/DNA 20 w/w)	luciferase expression (second part of table, values relative to LIPO2000) (cos-7 cells; lipid/DNA 25 w/w)	Reporter-protein knockdown relative to Lipofectamine 2000 (negative values indicate improved knockdown) ([1]; lipid/RNA 2.5 w/w)	Reporter-protein knockdown relative to Lipofectamine 2000 (negative values indicate improved knockdown) ([1]; lipid/RNA 5 w/w)	Reporter-protein knockdown relative to Lipofectamine 2000 (negative values indicate improved knockdown) ([1]; lipid/RNA 10 w/w)	Reporter-protein knockdown relative to Lipofectamine 2000 (negative values indicate improved knockdown) ([1]; lipid/RNA 15 w/w)	Raw values for luciferase expression ([2]; lipid/DNA 2.5 w/w)	Raw values for luciferase expression ([2]; lipid/DNA 5 w/w)	Raw values for luciferase expression ([2]; lipid/DNA 10 w/w) [relative lights units]	Raw values for luciferase expression ([2]; lipid/DNA 15 w/w) [relative lights units]	luciferase expression, second set of columns (replicate set of data) (cos-7 cells; [3])	luciferase expression, second set of columns (replicate set of data) (cos-7 cells; [4])	luciferase expression, second set of columns (replicate set of data) (cos-7 cells; [5])	luciferase expression, second set of columns (replicate set of data) (cos-7 cells; [6])
CCCCCCCCCCCCNC(=O)CCN(C)CCN(CCC(=O)NCCCCCCCCCCCC)CCC(=O)NCCCCCCCCCCCC [ND95]	11.3	30.9	37.6	53.4	37.8	54.0	19.8058	8.319	−5.205	−7.163	2875811 relative lights units	4619654 relative lights units	7977064	10279185	–	–	–	–
CCCCCCCCCCCCNC(=O)CCN(CCC(=O)NCCCCCCCCCCCC)CCN(CCC(=O)NCCCCCCCCCCCC)CCN(CCC(=O)NCCCCCCCCCCCC)CCN(CCC(=O)NCCCCCCCCCCCC)CCC(=O)NCCCCCCCCCCCC [ND98]	22.2	5.3	0.5	0.4	0.4	0.3	−4.005	−4.482	−4.634	−13.9514	5649897 relative lights units and 6947385 relative lights units	–	1824773	643862	78.4	65.8	26.0	9.2
CCCCCCCCCCCCNC(=O)CCN(CCC(=O)NCCCCCCCCCCCC)CCN(CCC(=O)NCCCCCCCCCCCC)CCC(=O)NCCCCCCCCCCCC [ND99]	16.8	36.5	78.6	91.7	–	–	−10.1961	−9.86	−18.2728	−20.0273	10252260 relative lights units and 11757295 relative lights units	9886021 relative lights units and 7656193 relative lights units	–	–	132.7	97.5	6.8	2.2
CCCCCCCCCCCCNC(=O)CCN(CCCN(CCC(=O)NCCCCCCCCCCCC)CCC(=O)NCCCCCCCCCCCC)CCC(=O)NCCCCCCCCCCCC [ND100]	45.7	48.0	20.8	2.7	–	–	10.88	−7.546	−21.4945	−8.3303	–	–	–	–	62.6	37.4	2.5	0.6
CCCCCCCCCCCCCCNC(=O)CCN(C)CCCN(CCC(=O)NCCCCCCCCCCCCCC)CCC(=O)NCCCCCCCCCCCCCC [NF96]	221.5	44.3	0.2	0.1	–	–	−6.262	−2.035	63.2	90.8142	–	–	2048655	167043	79.4	40.8	29.2	2.4
CCCCCCCCCCCCCCCNC(=O)CCN(CC)CCCN(CC)CCC(=O)NCCCCCCCCCCCCCCC [NG64]	–	–	–	–	–	–	−11.7697	−34.6712	3.073	1.439	2585784 relative lights units	1972838 relative lights units	–	–	–	–	–	–
